{"source": "patent US20250002450A1", "about": "“CATIONIC STEROID COMPOUNDS, METHOD OF OBTAINING THEREOF, FORMULATIONS COMPRISING THEREOF AND THEIR USES” (UNIVERSIDADE DO PORTO, priority 2021, published 2025)", "key": {"E. coli ATCC 25922 [1]": {"system": "E. coli ATCC 25922", "assay": "Bacterial biofilm formation inhibition (crystal violet)", "format": "cell-based, Escherichia coli", "description": "(§1) In an embodiment, the antibiofilm activity of compound 1 was performed as follows. Given its bactericidal effect, the impact of compound 1 on the biofilm formation of reference strains was studied.\n(§2) The effect of compound 1 on bacterial biofilm formation was evaluated through quantification of total biomass, using the crystal violet method, as previously described ([FIG. 6]). […] A control with an appropriate concentration of DMSO, as well as a negative control (TSB alone) was included. Sterile 96-well flat-bottomed untreated polystyrene microtiter plates were used. After a 24 h incubation at 37 degrees C., the biofilms were heat-fixed for 1 h at 60 degrees C. and stained with 0.5% (v/v) crystal violet (Quimica Clinica Aplicada, Amposta, Spain) for 5 min. The stain was resolubilized with 33% (v/v) acetic acid (Acetic acid 100%, AppliChem, Darmstadt, Germany) and the biofilm biomass was quantified by measuring the absorbance of each sample at 570 nm in a microplate reader (Thermo Scientific Multiskan® EX, Thermo Fisher Scientific, Waltham, MA, USA). The background absorbance (TSB or TSB+1% glucose without inoculum) was subtracted from the absorbance of each sample and the data are presented as a percentage of control. Three independent assays were performed for reference strains, with triplicates for each experimental condition."}, "C. albicans ATCC 10231": {"system": "C. albicans ATCC 10231", "assay": "Ergosterol binding assay", "format": "cell-based, Candida albicans", "conditions": "400 μg/mL ergosterol", "description": "Ceragenins have been described to interact with the lipophilic environment of microbial membranes and ergosterol is the major sterol component of fungal plasma membrane, and the target of several antifungals. As such, in order to evaluate the ability of compound 1 to bind to membrane ergosterol of C. albicans ATCC 10231, MICs were determined in the absence and presence of exogenous ergosterol ([FIG. 10]). If the tested compound has the ability to perturb membrane integrity by binding to ergosterol, is expected that, in the presence of exogenous ergosterol, the compound binds to it, decreasing the amount of compound available to bind to membrane ergosterol, therefore increasing the MIC. Amphotericin B was used as a positive control for this assay and MICs obtained were 8 times higher in the presence of 400 μg/mL of exogenous ergosterol than in its absence (2 to 16 μg/mL, data not shown). […] The ability of compound 1 to bind to membrane ergosterol of C. albicans ATCC 10231, was evaluated by the ergosterol binding assay, as previously described. Briefly, MICs of compound 1 were determined by broth microdilution, as described above, in the absence and presence of ergosterol (Sigma-Aldrich, St. Louis, MO, USA) at a final concentration of 400 μg/mL. Ergosterol was prepared immediately before being added to the plates, by maceration and dissolution in DMSO. The formed emulsion was then homogenized, heated to increase solubility, and diluted in RPMI. Amphotericin B was used as positive control. Plates were incubated at 35° C. for 48 h and MICs were determined as described above. At least two independent assays were performed."}, "[2]": {"system": "Staphylococcus aureus ATCC 29213", "assay": "Kirby-Bauer disk diffusion", "format": "cell-based", "conditions": "15 μg per disk", "description": "(§3) An initial screening of the antibacterial activity of the compounds was performed by the Kirby-Bauer disk diffusion method, as recommended by the Clinical and Laboratory Standards Institute (CLSI). Briefly, sterile 6 mm blank paper disks (Oxoid, Basingstoke, England) impregnated with 15 μg of each compound were placed on inoculated MH agar plates. A blank disk with dimethylsulfoxide (DMSO) was used as a negative control. MH inoculated plates were incubated for 18-20 h at 37 degrees C. At the end of incubation, the inhibition halos where measured. The MIC was used to determine the antibacterial activity of each compound, in accordance with the recommendations of the CLSI. Two-fold serial dilutions of the compounds were prepared in Mueller-Hinton Broth 2 (MHB2—Sigma-Aldrich, St. Louis, MO, USA) within the concentration range of 0.062-64 μg/mL. CTX ranging between 0.031-16 μg/mL was used as a control. Sterility and growth controls were included in each assay. Purity checks and colony counts of the inoculum suspensions were also performed in order to ensure that the final inoculum density closely approximates the intended number (5×10^5 CFU/mL). The MIC was determined as the lowest concentration of compound that inhibited growth of the bacteria. The MBC was assessed by spreading 10 μL of culture collected from wells showing no visible growth on MH agar plates. […] These assays were performed in duplicate."}, "[3]": {"system": "Escherichia coli ATCC 25922", "assay": "Kirby-Bauer disk diffusion", "format": "cell-based", "conditions": "15 μg per disk", "description": "as §3"}, "[4]": {"system": "Enterococcuss faecalis ATCC 29212", "assay": "Kirby-Bauer disk diffusion", "format": "cell-based, Enterococcus faecalis", "conditions": "15 μg per disk", "description": "(§4) An initial screening of the antibacterial activity of the compounds was performed by the Kirby-Bauer disk diffusion method, as recommended by the Clinical and Laboratory Standards Institute (CLSI). Briefly, sterile 6 mm blank paper disks (Oxoid, Basingstoke, England) impregnated with 15 μg of each compound were placed on inoculated MH agar plates. A blank disk with dimethylsulfoxide (DMSO) was used as a negative control. MH inoculated plates were incubated for 18-20 h at 37 degrees C. At the end of incubation, the inhibition halos where measured. The MIC was used to determine the antibacterial activity of each compound, in accordance with the recommendations of the CLSI. Two-fold serial dilutions of the compounds were prepared in Mueller-Hinton Broth 2 (MHB2—Sigma-Aldrich, St. Louis, MO, USA) within the concentration range of 0.062-64 μg/mL. CTX ranging between 0.031-16 μg/mL was used as a control. Sterility and growth controls were included in each assay. Purity checks and colony counts of the inoculum suspensions were also performed in order to ensure that the final inoculum density closely approximates the intended number (5×10^5 CFU/mL). The MIC was determined as the lowest concentration of compound that inhibited growth of the bacteria. The MBC was assessed by spreading 10 μL of culture collected from wells showing no visible growth on MH agar plates. […]"}, "E. faecalis B3/101 (VRE)": {"system": "E. faecalis B3/101 (VRE)", "assay": "Kirby-Bauer disk diffusion", "format": "cell-based, Enterococcus faecalis", "conditions": "15 μg per disk", "description": "as §4"}, "S. aureus 66/1 (MRSA)": {"system": "S. aureus 66/1 (MRSA)", "assay": "Kirby-Bauer disk diffusion", "format": "cell-based, Staphylococcus aureus", "conditions": "15 μg per disk", "description": "as §4"}, "E. coli ATCC 25922 [5]": {"system": "E. coli ATCC 25922", "assay": "Enzymatic/metabolic activity, MTT assay", "format": "cell-based, Escherichia coli", "description": "To determine whether compound 1 could also affect enzymatic activity, 2-(4,5-dimethyl-2-thiazolyl)-3,5-diphenyl-2H-tetrazolium bromide (MTT) assay was performed. This assay can also be used as an indirect measure of cellular viability, as tetrazolium salts are reduced to purple formazan by metabolically active cells. E. coli ATCC 25922 cells were treated with compound 1 and COL and AMP were used as controls, as described above. Measurements were made at 0, 1, and 18 h.\nEnzymatic activity was evaluated by the MTT assay, as previously described, with some modifications. Cell suspensions of E. coli ATCC 25922 were prepared as described above, as well as test conditions and controls. At each time point (0, 1, and 18 h), 500 μL aliquots were collected, centrifuged at 3500 rpm for 10 min, the supernatant was removed, and 300 μL of MTT solution (0.5 mg/mL in CAMHB, at 36 degrees C.) (Thiazolyl Blue Tetrazolium Bromide, Alfa Aesar, Ward Hill, MA, USA) were added. After a 30 min incubation at 36° C., the insoluble formazan product resulting from the conversion of MTT by metabolically active cells was solubilized with 300 μL of DMSO. 100 μL of each sample were transferred in duplicate to the wells of a microtiter plate and the extent of the reduction of MTT to formazan was quantified by measuring the absorbance at 570 nm (Thermo Scientific Multiskan® EX, Thermo Fisher Scientific, Waltham, MA, USA). Three independent assays were performed in duplicate, and results are expressed as a percentage of untreated control."}, "S. aureus ATCC 29213": {"system": "S. aureus ATCC 29213", "assay": "Bacterial biofilm formation inhibition (crystal violet)", "format": "cell-based, Staphylococcus aureus", "conditions": "2×MIC and MIC, 24 h", "description": "as §1, §2"}, "C. jejuni P5/4": {"system": "C. jejuni P5/4", "assay": "Kirby-Bauer disk diffusion", "format": "cell-based, Campylobacter jejuni", "conditions": "15 μg per disk", "description": "as §4"}}, "data": [{"molecule": "C[C@H](CCC(=O)NCCN)[C@H]1CC[C@H]2[C@@H]3CC[C@@H]4C[C@H](O)CC[C@]4(C)[C@H]3C[C@H](O)[C@]12C", "note": "[Compound 1, (R)—N-(2-aminoethyl)-4-((3R,5R,8R,9S,10S,12S,13R,14S,17R)-3,12-dihydroxy-10,13-dimethylhexadecahydro-1H-cyclopenta[a]phenanthren-17-yl) pentanamida]", "values": [{"measurement": "biofilm formation (in words)", "setting": "E. coli ATCC 25922 [1]; 2×MIC and MIC, 24 h", "result": "significantly inhibited"}, {"measurement": "minimal biofilm inhibitory concentration (MBIC)", "setting": "E. coli ATCC 25922 [1]; 80% reduction of biofilm formation, E. coli ATCC 25922", "result": "< 8", "unit": "µg/mL"}, {"measurement": "effect of exogenous ergosterol on MICs (in words)", "setting": "C. albicans ATCC 10231", "result": "unaffected"}, {"measurement": "Disk diffusion", "setting": "[2]", "result": 13, "unit": "mm"}, {"measurement": "Disk diffusion", "setting": "[3]", "result": 8, "unit": "mm"}, {"measurement": "Disk diffusion", "setting": "[4]", "result": 13, "unit": "mm"}, {"measurement": "Disk diffusion", "setting": "E. faecalis B3/101 (VRE)", "result": 11, "unit": "mm"}, {"measurement": "Disk diffusion", "setting": "S. aureus 66/1 (MRSA)", "result": 11, "unit": "mm"}, {"measurement": "metabolic activity (MTT) vs untreated control", "setting": "E. coli ATCC 25922 [5]; 32 μg/mL, after 1 and 18 h", "result": "decrease in enzymatic activity"}, {"measurement": "metabolic activity (MTT) vs untreated control", "setting": "E. coli ATCC 25922 [5]; 64 μg/mL, 0, 1, 18 h", "result": "significantly reduced at all time points"}, {"measurement": "biofilm formation (in words)", "setting": "S. aureus ATCC 29213", "result": "significantly inhibited"}, {"measurement": "Disk diffusion", "setting": "C. jejuni P5/4", "result": 8, "unit": "mm"}]}]}
